According to the NIST ThermoML archive (doi:10.1021/je900164a):
± gives the expanded uncertainty stated by the source.

Assay: xn = mol fraction of the nth substance listed
Settings: 101 kPa, Liquid, Vibrating tube method

CCCC[N+](CCCC)(CCCC)CCCC.[Br-] [tetrabutylammonium bromide] + O
mass density [kg/m3]
Settings | 276.15 K | 277.15 K | 278.15 K | 279.18 K | 280.15 K | 281.15 K | 282.15 K
x1 = 0.0009 | 1001.35 ± 0.041 | 1001.35 ± 0.041 | 1001.32 ± 0.041 | 1001.28 ± 0.041 | 1001.23 ± 0.041 | 1001.16 ± 0.041 | 1001.09 ± 0.041
x1 = 0.0018 | 1002.75 ± 0.042 | 1002.73 ± 0.042 | 1002.69 ± 0.042 | 1002.65 ± 0.042 | 1002.58 ± 0.042 | 1002.49 ± 0.042 | 1002.4 ± 0.042
x1 = 0.00359 | 1005.6 ± 0.044 | 1005.52 ± 0.043 | 1005.47 ± 0.043 | 1005.39 ± 0.043 | 1005.29 ± 0.043 | 1005.18 ± 0.043 | 1005.07 ± 0.043
x1 = 0.00715 | 1011.37 ± 0.048 | 1011.23 ± 0.048 | 1011.09 ± 0.048 | 1010.96 ± 0.048 | 1010.78 ± 0.048 | 1010.61 ± 0.048 | 1010.44 ± 0.048
x1 = 0.01069 | 1017.09 ± 0.053 | 1016.88 ± 0.053 | 1016.66 ± 0.053 | 1016.45 ± 0.053 | 1016.22 ± 0.053 | 1015.98 ± 0.053 | 1015.72 ± 0.052
x1 = 0.01421 | 1022.49 ± 0.059 | 1022.16 ± 0.058 | 1021.91 ± 0.058 | 1021.63 ± 0.058 | 1021.32 ± 0.058 | 1020.99 ± 0.058 | 1020.68 ± 0.057
x1 = 0.0177 | 1027.72 ± 0.063 | 1027.3 ± 0.063 | 1026.96 ± 0.063 | 1026.61 ± 0.063 | 1026.22 ± 0.063 | 1025.83 ± 0.062 | –
x1 = 0.02202 | 1033.53 ± 0.067 | 1033.01 ± 0.069 | 1032.57 ± 0.068 | 1032.11 ± 0.069 | 1031.62 ± 0.068 | 1031.18 ± 0.068 | –
x1 = 0.02631 | 1038.46 ± 0.071 | 1037.94 ± 0.072 | 1037.41 ± 0.072 | 1036.89 ± 0.072 | 1036.32 ± 0.072 | 1035.8 ± 0.071 | –
x1 = 0.03056 | 1042.53 ± 0.098 | 1040.98 ± 0.085 | 1040.41 ± 0.076 | 1039.82 ± 0.077 | 1039.11 ± 0.076 | 1038.63 ± 0.075 | –
x1 = 0.03478 | – | 1045.39 ± 0.077 | 1044.76 ± 0.08 | 1044.11 ± 0.081 | 1043.44 ± 0.08 | 1042.82 ± 0.08 | –
x1 = 0.0431 | – | 1050.63 ± 0.085 | 1049.93 ± 0.088 | 1049.24 ± 0.088 | 1048.51 ± 0.085 | 1048.23 ± 0.087 | –
x1 = 0.05128 | – | 1054.86 ± 0.09 | 1054.13 ± 0.093 | 1053.4 ± 0.093 | 1052.65 ± 0.093 | 1051.94 ± 0.092 | –
x1 = 0.07499 | – | 1060.81 ± 0.12 | 1060.07 ± 0.12 | 1059.33 ± 0.12 | 1058.55 ± 0.12 | 1057.83 ± 0.12 | –
